Test results reported in BindingDB's records for doi:10.1021/acs.jmedchem.0c00830 (University of East Anglia, 2020).

Target: Histone deacetylase 3/Nuclear receptor corepressor 2 (HDAC3/NCoR2) (Homo sapiens, UniProt O15379+Q9Y618)
Assay: Inhibition of human C-terminal His-tagged HDAC3 (1 to 428 residues)/human N-terminal GST-tagged NcoR2 (395 to 489 residues) expressed in sf9 cells using p53 (379 to 382 residues) (Arg-His-Lys(Ac)-Lys(Ac)) as substrate by fluorimetric assay

Histone deacetylase 3/Nuclear receptor corepressor 2 (HDAC3/NCoR2), sequence (O15379 whole entry, the tested form may be a part): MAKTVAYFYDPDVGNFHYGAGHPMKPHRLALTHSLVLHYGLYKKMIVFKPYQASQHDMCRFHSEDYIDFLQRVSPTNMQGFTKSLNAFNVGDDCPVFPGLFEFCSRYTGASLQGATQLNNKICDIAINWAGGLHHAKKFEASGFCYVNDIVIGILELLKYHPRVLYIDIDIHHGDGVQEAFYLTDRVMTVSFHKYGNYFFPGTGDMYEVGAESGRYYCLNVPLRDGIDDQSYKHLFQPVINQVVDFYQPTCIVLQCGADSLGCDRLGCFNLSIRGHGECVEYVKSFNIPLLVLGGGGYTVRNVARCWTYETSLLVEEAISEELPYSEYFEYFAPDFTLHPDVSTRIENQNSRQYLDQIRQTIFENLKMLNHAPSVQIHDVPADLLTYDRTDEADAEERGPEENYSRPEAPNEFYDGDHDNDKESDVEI
Histone deacetylase 3/Nuclear receptor corepressor 2 (HDAC3/NCoR2), sequence (Q9Y618 whole entry, the tested form may be a part): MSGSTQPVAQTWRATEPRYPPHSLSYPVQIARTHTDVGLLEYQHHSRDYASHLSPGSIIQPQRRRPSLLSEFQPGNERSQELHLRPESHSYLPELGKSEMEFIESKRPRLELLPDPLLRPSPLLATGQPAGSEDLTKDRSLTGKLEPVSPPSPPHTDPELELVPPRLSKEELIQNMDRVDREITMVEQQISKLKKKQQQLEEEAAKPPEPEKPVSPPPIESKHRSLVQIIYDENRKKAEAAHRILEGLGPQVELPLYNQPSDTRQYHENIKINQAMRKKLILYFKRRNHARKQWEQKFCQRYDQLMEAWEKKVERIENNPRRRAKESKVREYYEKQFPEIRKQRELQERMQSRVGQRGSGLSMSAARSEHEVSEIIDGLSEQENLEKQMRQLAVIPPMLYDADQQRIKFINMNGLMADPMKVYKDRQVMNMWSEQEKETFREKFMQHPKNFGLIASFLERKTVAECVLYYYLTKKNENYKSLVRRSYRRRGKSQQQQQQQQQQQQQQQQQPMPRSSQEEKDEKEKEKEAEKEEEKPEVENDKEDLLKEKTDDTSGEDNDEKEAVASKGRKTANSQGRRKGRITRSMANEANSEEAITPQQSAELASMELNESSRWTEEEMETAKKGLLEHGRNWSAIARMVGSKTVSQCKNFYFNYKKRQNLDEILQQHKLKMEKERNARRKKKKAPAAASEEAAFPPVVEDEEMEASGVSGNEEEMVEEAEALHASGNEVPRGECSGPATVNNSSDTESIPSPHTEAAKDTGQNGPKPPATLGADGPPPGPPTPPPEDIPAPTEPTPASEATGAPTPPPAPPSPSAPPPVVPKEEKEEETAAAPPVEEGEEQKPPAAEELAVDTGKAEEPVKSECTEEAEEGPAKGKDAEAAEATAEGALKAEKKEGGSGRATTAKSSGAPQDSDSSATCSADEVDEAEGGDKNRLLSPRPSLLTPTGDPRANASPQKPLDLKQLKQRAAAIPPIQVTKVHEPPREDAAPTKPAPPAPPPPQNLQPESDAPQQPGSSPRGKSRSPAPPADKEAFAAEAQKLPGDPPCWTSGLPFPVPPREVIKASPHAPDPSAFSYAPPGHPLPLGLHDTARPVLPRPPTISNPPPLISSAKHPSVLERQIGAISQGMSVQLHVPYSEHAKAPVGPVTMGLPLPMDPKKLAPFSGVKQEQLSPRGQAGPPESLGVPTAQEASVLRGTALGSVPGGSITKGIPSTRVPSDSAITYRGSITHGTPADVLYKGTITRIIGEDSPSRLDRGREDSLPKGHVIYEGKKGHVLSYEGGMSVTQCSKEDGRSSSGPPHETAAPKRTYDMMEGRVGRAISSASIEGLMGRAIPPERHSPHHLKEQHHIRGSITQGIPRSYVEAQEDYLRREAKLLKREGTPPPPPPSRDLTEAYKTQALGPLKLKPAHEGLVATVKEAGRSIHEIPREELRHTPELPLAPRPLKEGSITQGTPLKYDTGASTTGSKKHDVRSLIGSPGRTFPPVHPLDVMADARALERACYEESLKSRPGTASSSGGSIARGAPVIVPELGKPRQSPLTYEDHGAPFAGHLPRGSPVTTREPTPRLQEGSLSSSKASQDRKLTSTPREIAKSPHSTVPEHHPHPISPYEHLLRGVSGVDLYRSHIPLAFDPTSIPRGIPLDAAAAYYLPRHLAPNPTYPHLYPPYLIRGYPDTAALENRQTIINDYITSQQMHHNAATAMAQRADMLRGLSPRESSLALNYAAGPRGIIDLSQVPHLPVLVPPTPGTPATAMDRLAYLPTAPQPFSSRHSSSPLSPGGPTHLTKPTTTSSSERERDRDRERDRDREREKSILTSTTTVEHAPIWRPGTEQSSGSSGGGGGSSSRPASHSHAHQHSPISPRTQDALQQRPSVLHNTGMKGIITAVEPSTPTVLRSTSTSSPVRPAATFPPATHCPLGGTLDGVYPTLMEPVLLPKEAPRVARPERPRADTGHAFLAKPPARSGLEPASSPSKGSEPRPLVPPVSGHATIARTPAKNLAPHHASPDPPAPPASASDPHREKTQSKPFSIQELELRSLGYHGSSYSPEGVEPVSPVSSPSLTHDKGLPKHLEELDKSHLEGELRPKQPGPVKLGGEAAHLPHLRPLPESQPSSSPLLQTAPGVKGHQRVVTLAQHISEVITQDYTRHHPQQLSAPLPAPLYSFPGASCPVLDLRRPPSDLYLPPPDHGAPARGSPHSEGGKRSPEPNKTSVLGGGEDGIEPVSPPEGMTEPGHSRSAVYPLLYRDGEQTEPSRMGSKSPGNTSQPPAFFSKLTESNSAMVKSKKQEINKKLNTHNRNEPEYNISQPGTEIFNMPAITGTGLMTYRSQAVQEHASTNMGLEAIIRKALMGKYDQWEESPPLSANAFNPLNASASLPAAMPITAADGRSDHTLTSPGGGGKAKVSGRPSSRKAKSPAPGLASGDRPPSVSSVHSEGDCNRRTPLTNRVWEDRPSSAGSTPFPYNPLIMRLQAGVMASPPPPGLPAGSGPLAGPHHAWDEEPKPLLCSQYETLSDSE

Q: For `CCCCNNC(=O)c1ccc(Br)cc1` [UF010], which IC50 is on record?
A: 60 nM
